Experiments:
Mentha arvensis = assay: Growth promoting activity with Mentha arvensis internode explants; format: in vivo
Procedure: To confirm the growth promoting activity of methanone-(3′,4′,5′-trimethoxy) phenyl, 1-naphthyl, 2-O-4″-ethyl but-2″-enoate, it was tested with a medicinal and aromatic plant species Mentha arvensis. The explants used were 0.5 cm long pieces of the second and third internodes of the shoots formed from axillary buds and culture. The internode segments were inoculated in MS basal media (Murashige and Skoog, 1962, Physiol. Planta. 15: pp. 473 to 497) containing vitamins 100 μg/ml, myo-inositol 3%, w/v, sucrose 1.5% w/v, Agar and different concentrations of auxins and cytokinin. Different concentrations of 1-naphthalene acetic acid (NM) (0.0, 0.2, 2.0 μg/ml) were used in combination with different concentrations of 6 benzyl amino purine (BAP) (0, 10 & 5 μg/ml). On each kind of media […] of the explants were inoculated into three petriplates with each plates containing 4 explants. Compound 1 was serially replaced with each concentration of NM and BAP individually to observe its growth promoting activity. The experiment was arranged in the form of a completely randomized design (CRD).
Cultures were maintained at 25±2° C. and 400 to 600 lux light intensity with 16 h photoperiod. The response of explants was recorded every 24 h over 4 week periods. […] The proportional increase in biomass was recorded by taking the fresh weight of the growing tissue during sub culturing and dividing the increase with the initial weight.
At the end of 12 weeks from inoculation the shoots were separated and individually transferred to MS basal media containing vitamins for rooting. The rooted plantlets were subsequently transferred to pods in a green house.
The basal medium for studying the response was MS 0 (Murashige and Skoog, 1962, Physiol. Planta. 15: pp. 473 to 497) supplemented with 0.2 mg/L IAA (indole acetic acid) and 5 mg/L BAP (benzene amino purine).
The basal medium for studying the response was MS 0 (Murashige and Skoog, 1962, Physiol. Planta. 15: pp. 473 to 497) supplemented with 2mg/L IAA (indole acetic acid) and 10 mg/L BAP (benzene amino purine).

Bacopa monnieri = assay: Growth promoting activity using Bacopa sensor system; format: in vivo
Procedure: For testing the growth promoting effect of methanone-(3′,4′,5′-trimethoxy) phenyl, 1-naphthyl, 2-O-4″-ethyl but-2″-enoate, the compounds was dissolved in DMSO and added into the medium at 1.0 μg/ml. Only solvent was used as a control in the experiment for comparison. A fast propagating strain of Bacopa monnieri developed as a biosensor system through tissue culture at CIMAP (Khanuja et al., 2001, J Environa Pathol, Toxicol and Onco (JEPTO), 20:pp. 15 to 22) was used in the tests. The MS basal medium (Murashige and Skoog, 1962, Physiol. Planta. 15: pp. 473 to 497) supplemented with test compounds was used in the assays. Measured 0.5 to 1.0 ml medium was poured into 1.5 ml graduated microcentrifuge tubes. Twig cuttings of 2.5 cm were inoculated in 10 replicates for each treatment. These inoculated tubes were put into a half transparent desiccator allowing air passage through sterile cotton plugs fixed on opening vent. The tubes were placed such that the medium-containing portion of the tubes where roots would be initiating is inserted in to the holes of the stand made from a thermocol sheet. These desiccators were incubated at normal ambient temperature of 25 to 28° C. with 14 hours light and 10 hours dark cycle. The root initiation, shoot elongation, callus induction, shoot proliferation and wilting was recorded from day 2 to 14 every 24 hours.

**Q.** For `CCOC(=O)C=CCOc1ccc2ccccc2c1C(=O)c1cc(OC)c(OC)c(OC)c1` [Compound 1, methanone-(3′,4′,5′-trimethoxy) phenyl, 1-naphthyl 2-O-4″-ethyl but-2″-enoate], which “Number of shoots observed after three weeks” value (Mentha arvensis; Medium A2 with IAA replaced: BAP 5.0, Compound 1 0.2, no roots) is on record?
**A.** 1–2 shoots shoots per explant

**Q.** What about the “Number of shoots observed after three weeks” value (Mentha arvensis; Medium A3 with IAA replaced: BAP 10.0, Compound 1 2.0, single root in one replication) of the same molecule?
**A.** 3–4 shoots shoots per explant

**Q.** What about the shoots produced (Mentha arvensis; within three weeks in medium A3) of the same molecule?
**A.** 3 to 4 shoots

**Q.** And the “Shoot Elongation” value (Bacopa monnieri; 1.0 μg/ml in MS basal medium, 2.5 cm twig cuttings, 10 replicates, recorded day 2 to 14, control 1.0)?
**A.** 1.6 cms

**Q.** What about the “Browning Yellowing Death” value (Bacopa monnieri; 1.0 μg/ml in MS basal medium, twig cuttings, day 2 to 14) of the same molecule?
**A.** Nil

**Q.** What about the “Root Elongation” value (Bacopa monnieri; 1.0 μg/ml in MS basal medium, twig cuttings, day 2 to 14, control 0.8) of the same molecule?
**A.** 0.8 cms

**Q.** And the Branching (Bacopa monnieri; 1.0 μg/ml in MS basal medium, twig cuttings, day 2 to 14, control 2.0)?
**A.** 2.0 nos

**Q.** And the “Number of Roots” value (Bacopa monnieri; 1.0 μg/ml in MS basal medium, twig cuttings, day 2 to 14, control 2 + 2)?
**A.** 2 + 2 nos

**Q.** What about the “Number of Leaves” value (Bacopa monnieri; 1.0 μg/ml in MS basal medium, twig cuttings, day 2 to 14, control 5.0) of the same molecule?
**A.** 11.0 nos

**Q.** What about the “enhances the shoot elongation” value (Bacopa monnieri; within 15 days) of the same molecule?
**A.** about 1.6 cm
